Assay results published in patent US8318762B2, “Pyrazolospiroketone acetyl-CoA carboxylase inhibitors” (Pfizer Inc., priority 2008, dated 2012).

Columns and labels:
rat liver ACC = rat liver ACC (Rattus norvegicus, UniProt P11497); type: biochemical; conditions: rat liver ACC radio enzymatic assay
Protocol: [1] Preparation of rat liver ACC. Rat liver ACC was obtained from rat liver based upon standard procedures such as those described by Thampy and Wakil (J. Biol. Chem. 260: 6318-6323; 1985) using the following method.
Male CD rats weighing 150-200 g were fasted for 18-24 hours and then fed a high sucrose diet (AIN-76A rodent diet; Cat # D10001, Research Diets Inc., New Brunswick, N.J.), for 3 days at which time they were sacrificed by CO2 asphyxiation. The livers were removed, rinsed in ice-cold phosphate-buffered saline (PBS), and homogenized in 5 volumes of homogenization buffer (50 mM potassium phosphate, pH 7.5, 10 mM EDTA, 10 mM 2-mercaptoethanol, 2 mM benzamidine, 0.2 mM phenylmethylsulfonylfluoride (PMSF), 5 mg/L each leupeptin, aprotinin, and antitrypsin) in a Waring® blender for 1 minute at 4° C. All subsequent operations were carried out at 4° C. The homogenate has made 3% with respect to polyethylene glycol (PEG) by the addition of 50% PEG solution and centrifuged at 20,000×g for 15 minutes. The resulting supernatant was adjusted to 5% PEG with the addition of 50% PEG solution and stirred for 5 minutes. The pellet (contains ACC activity) was collected by centrifugation at 20,000×g for 20 minutes, rinsed with ice-cold doubly distilled water to remove excess PEG and re-suspended in one-fourth the original homogenate volume with homogenization buffer. Ammonium sulfate (200 g/liter) was slowly added with stirring. After 45 minutes the enzyme is collected by centrifugation for 30 minutes at 20,000×g, re-suspended in 10 mL of 50 mM HEPES, pH7.5, 0.1 mM DTT, 1.0 mM EDTA, and 10% glycerol and desalted on a Sephadex™ G-25 column (2.5 cm×50 cm) (Pharmacia, Piscataway N.J. now GE Healthcare) equilibrated with the same buffer. The desalted enzyme preparation was stored in aliquots at −70° C. Immediately prior to use, frozen rat liver ACC aliquots were thawed, diluted to 500 μg/mL in buffer containing 50 mM HEPES, pH7.5, 10 mM MgCl2, 10 mM tripotassium citrate, 2.0 mM dithiothreitol (DTT), and 0.75 mg/mL fatty acid-free bovine serum albumin (BSA) and pre-incubated at 37° C. for 30 minutes.
[2] Measurement of rat liver ACC inhibition. For measurement of ACC activity and assessment of ACC inhibition, test compounds were dissolved in dimethylsulfoxide (DMSO) and 1 μL aliquots were added to a clear bottom, 96-well plates (Perkin-Elmer PN#1450-514). Control wells contain 1 μL of DMSO alone or 1 μL of high inhibition compound. The enzyme obtained from rat liver as described above was activated in Enzyme buffer at 37° C. for 30 minutes prior to addition to compound plate. All wells receive 75 μL of activated enzyme (1.33×) in a buffer containing 50 mM HEPES, pH7.5, 7.5 mM MgCl2 7.5 mM tripotassium citrate, 2 mM DTT, 50 mg/mL BSA. The activated enzyme was pre-incubated with the cmpd for 10 minute prior to initiating the reaction through the addition of 25 μL of substrate solution containing 50 mM HEPES, pH7.5, 7.5 mM MgCl2 7.5 mM tripotassium citrate, 2 mM DTT, 50 mg/mL BSA, 120 μM acetyl-CoA, 8.0 mM ATP, 38.4 mM KHCO3, and 1.6 mM NaH[^14C]O3 ([…]). The final substrate concentrations in the reaction were 30 μM Acetyl-CoA, 9.6 mM KHCO3, 0.4 mM NaH[^14C]O3, and 2 mM ATP. The reaction was terminated after 10 mins by the addition of 25 μL 3N HCl and the plates were dried at 50° C. for a minimum 20 hrs. 30 μL of water was added to the dried plate and mixed for 5 minutes. 95 μL of Optiphase Supermix liquid scintillation fluid (Perkin Elmer, Waltham, Mass.) was added and the plates are mixed for 20 minutes. Incorporation of ^14C into MCoA was measured using a Wallac Trilux 1450 Microbeta LSC luminescence counter.

recombinant human ACC2 = target: T1, recombinant human ACC2 (Homo sapiens, UniProt O00763); test: Measurement of human ACC2 inhibition (recombinant hACC2 Transcreener ADP detection FP assay); type: biochemical; conditions: recombinant hACC2 transcreener assay; read-out: rhACC2 IC50
T1 construct: a full length Cytomax clone of ACC2 was purchased from Cambridge Bioscience Limited; made in house; host or cells: CHO cells (tetracycline induction, pcDNA5 FRT TO-TOPO); purified on a Softlink Soft Release Avidin column
How it was run: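 Purified hACC2 from tetracycline-induced CHO cells (avidin-column eluate) was run in 50 mM HEPES pH7.5, 5 mM MgCl2, 5 mM citrate, 2 mM DTT, 0.5 mg/mL BSA with 30 μM acetyl-CoA, 50 μM ATP and 8 mM KHCO3. Reaction lasted 1 hour at room temperature; ADP was detected by Transcreener FP after another 1 hour.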

[1] = tested on: malonyl-CoA levels in muscle tissue; test: Acute in vivo assessment of ACC inhibition: malonyl-CoA levels in muscle tissue (quadriceps); set-up: species or system male Sprague-Dawley Rats; conditions: relative to chow-fed vehicle control group, % decrease +/- SEM
Protocol: (§1) The ACC inhibitory activity of the compound of the present invention can be confirmed in vivo by evaluation of their ability to reduce malonyl-CoA levels in liver and muscle tissue from treated animals.
(§2) Measurement of malonyl-CoA production inhibition in experimental animals. In this method, male Sprague-Dawley Rats, maintained on standard chow and water ad libitum (225-275 g), were randomized prior to the study. Animals were either fed, or fasted for 18 hours prior to the beginning of the experiment. Two hours into the light cycle the animals were orally dosed with a volume of 5 mL/kg, (0.5% methyl cellulose; vehicle) or with the appropriate compound (prepared in vehicle). Fed vehicle controls were included to determine baseline tissue malonyl-CoA levels while fasted animals were included to determine the effect fasting had on malonyl-CoA levels. One hour after compound administration the animals were asphyxiated with CO2 and the tissues were removed. Specifically, blood was collected by cardiac puncture and placed into BD Microtainer tubes containing EDTA (BD Biosciences, NJ), mixed, and placed on ice. Plasma was used to determine drug exposure. Liver and quadriceps were removed, immediately freeze-clamped, wrapped in foil and stored in liquid nitrogen.
(§3) Tissues were pulverized under liquid N2 to ensure uniformity in sampling. Malonyl-CoA was extracted from the tissue (150-200 mg) with 5 volumes 10% […] in Lysing Matrix A (MP Biomedicals, PN 6910) in a FastPrep FP120 (Thermo Scientific, speed=5.5; for 45 seconds). The supernatant containing malonyl-CoA was removed from the cell debris after centrifugation at 15000×g for 30 minutes (Eppendorf Centrifuge 5402). Samples were stably frozen at −80 C until analysis is completed.
(§4) Analysis of malonyl CoA levels in liver and muscle tissue can be evaluated using the following methodology.
(§5) The method utilizes the following materials: Malonyl-CoA tetralithium salt and malonyl-^13C3-CoA trilithium salt which were purchased from Isotec (Miamisburg, Ohio, USA), sodium perchlorate (Sigma, cat no. 410241), trichloroacetic acid (ACROS, cat no. 42145), phosphoric acid (J. T. Baker, cat no. 0260-01), ammonium formate (Fluke, cat no. 17843), methanol (HPLC grade, J. T. Baker, cat no. 9093-33), and water (HPLC grade, J. T. Baker, 4218-03) were used to make the necessary mobile phases. Strata-X on-line solid phase extraction columns, 25 μm, 20 mm×2.0 mm I.D (cat no. 00M-S033-B0-CB) were obtained from Phenomenex (Torrance, Calif., USA). SunFire C18 reversed-phase columns, 3.5 μm, 100 mm×3.0 mm I.D. (cat no. 186002543) were purchased from Waters Corporation (Milford, Mass., USA).
(§6) This method may be performed utilizing the following equipment. Two-dimensional chromatography using an Agilent 1100 binary pump, an Agilent 1100 quaternary pump and two Valco Cheminert 6-port two position valves. Samples were introduced via a LEAP HTC PAL auto sampler with Peltier cooled stack maintained at 10° C. and a 20 μL sampling loop. The needle wash solutions for the autosampler are 10% trichloroacetic acid in water (w/v) for Wash 1 and 90:10 methanol:water for Wash 2. The analytical column (Sunfire) was maintained at 35° C. using a MicroTech Scientific Micro-LC Column Oven. The eluant was analyzed on an ABI Sciex API3000 triple quadrupole mass spectrometer with Turbo Ion Spray.
(§7) Two-dimensional chromatography was performed in parallel using distinct gradient elution conditions for on-line solid phase extraction and reversed-phase chromatography. The general design of the method was such that the first dimension was utilized for sample clean-up and capture of the analyte of interest followed by a brief coupling of both dimensions for elution from the first dimension onto the second dimension. The dimensions were subsequently uncoupled allowing for gradient elution of the analyte from the second dimension for quantification while simultaneously preparing the first dimension for the next sample in the sequence. […]

[2] = tested on: malonyl-CoA levels in liver; test: Acute in vivo assessment of ACC inhibition: malonyl-CoA levels in liver tissue; set-up: species or system male Sprague-Dawley Rats; conditions: relative to chow-fed vehicle control group, % decrease +/- SEM
Protocol: as §1, §2, §3, §4, §5, §6, §7

T1 sequence (O00763 whole entry): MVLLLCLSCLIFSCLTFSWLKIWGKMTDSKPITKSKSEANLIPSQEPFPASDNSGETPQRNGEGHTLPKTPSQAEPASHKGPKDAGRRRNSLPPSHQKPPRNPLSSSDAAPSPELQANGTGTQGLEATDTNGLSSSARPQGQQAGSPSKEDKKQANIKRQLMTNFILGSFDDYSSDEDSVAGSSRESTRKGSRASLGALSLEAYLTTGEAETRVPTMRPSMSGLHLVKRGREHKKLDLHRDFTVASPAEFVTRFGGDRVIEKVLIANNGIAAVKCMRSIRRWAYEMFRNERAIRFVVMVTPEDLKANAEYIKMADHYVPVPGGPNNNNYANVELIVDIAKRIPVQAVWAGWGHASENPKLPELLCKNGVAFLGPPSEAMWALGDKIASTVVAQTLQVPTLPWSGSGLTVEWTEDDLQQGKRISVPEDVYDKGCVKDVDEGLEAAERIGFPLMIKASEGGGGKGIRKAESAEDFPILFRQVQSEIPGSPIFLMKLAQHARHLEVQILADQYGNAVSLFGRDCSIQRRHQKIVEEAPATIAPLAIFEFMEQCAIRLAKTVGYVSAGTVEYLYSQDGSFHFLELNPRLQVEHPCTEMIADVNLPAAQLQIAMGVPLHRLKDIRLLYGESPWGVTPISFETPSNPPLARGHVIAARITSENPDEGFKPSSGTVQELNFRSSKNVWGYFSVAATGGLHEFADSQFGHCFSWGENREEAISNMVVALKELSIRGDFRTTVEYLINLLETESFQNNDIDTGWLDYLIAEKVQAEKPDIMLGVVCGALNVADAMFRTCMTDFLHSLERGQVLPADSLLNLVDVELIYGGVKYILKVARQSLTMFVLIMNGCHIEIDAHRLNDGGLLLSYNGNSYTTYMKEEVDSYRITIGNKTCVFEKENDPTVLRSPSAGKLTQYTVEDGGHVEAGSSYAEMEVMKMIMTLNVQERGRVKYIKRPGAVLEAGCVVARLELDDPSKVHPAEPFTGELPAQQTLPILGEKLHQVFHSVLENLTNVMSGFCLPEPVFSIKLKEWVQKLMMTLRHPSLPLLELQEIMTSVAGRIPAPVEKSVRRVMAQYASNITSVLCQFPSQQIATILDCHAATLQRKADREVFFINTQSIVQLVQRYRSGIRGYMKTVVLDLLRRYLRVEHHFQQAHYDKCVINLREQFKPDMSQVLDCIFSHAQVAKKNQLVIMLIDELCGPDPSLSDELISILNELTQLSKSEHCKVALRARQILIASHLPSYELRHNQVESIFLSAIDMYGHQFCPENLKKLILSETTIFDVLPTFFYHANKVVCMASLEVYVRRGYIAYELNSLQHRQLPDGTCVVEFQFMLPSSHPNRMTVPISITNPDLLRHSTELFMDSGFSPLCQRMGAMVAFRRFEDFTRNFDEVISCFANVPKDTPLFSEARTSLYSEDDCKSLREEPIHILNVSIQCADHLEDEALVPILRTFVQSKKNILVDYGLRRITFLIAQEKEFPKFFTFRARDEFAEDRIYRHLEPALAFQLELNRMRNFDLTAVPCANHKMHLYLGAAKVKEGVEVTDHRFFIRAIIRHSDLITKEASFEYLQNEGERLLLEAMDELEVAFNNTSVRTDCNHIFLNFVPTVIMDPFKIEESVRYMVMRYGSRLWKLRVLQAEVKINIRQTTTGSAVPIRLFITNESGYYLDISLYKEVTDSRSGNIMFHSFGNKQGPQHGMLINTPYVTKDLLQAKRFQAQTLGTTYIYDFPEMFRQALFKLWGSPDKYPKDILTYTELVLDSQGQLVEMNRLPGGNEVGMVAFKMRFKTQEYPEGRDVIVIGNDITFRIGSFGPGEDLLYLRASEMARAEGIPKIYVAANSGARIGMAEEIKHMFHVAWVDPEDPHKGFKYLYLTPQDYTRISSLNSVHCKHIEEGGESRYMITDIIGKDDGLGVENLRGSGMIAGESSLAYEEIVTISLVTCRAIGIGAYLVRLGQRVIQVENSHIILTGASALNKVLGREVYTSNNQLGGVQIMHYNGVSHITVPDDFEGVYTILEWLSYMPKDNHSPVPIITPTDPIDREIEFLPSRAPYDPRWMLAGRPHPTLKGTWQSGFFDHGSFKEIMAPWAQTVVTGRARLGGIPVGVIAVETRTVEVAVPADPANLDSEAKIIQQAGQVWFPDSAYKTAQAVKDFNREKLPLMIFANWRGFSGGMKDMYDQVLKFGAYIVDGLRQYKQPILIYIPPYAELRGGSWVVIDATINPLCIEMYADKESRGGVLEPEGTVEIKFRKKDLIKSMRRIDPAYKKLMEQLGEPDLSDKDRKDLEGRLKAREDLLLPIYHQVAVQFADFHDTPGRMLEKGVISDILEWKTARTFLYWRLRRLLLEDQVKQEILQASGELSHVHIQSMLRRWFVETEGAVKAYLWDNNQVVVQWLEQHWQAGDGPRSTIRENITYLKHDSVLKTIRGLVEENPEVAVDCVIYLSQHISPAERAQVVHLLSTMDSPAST

## CC(C)n1cc2c(n1)C(=O)CC1(CCN(C(=O)c3ccc4cn(C)nc4c3)CC1)O2 [5.002]
Rat liver ACC
  IC50: 201 nM
Recombinant human ACC2
  IC50: 147 nM

## Cc1cc(C(=O)N2CCC3(CC2)CC(=O)c2nn(C4CCCC4)cc2O3)cc2cn[nH]c12 [1.038]
Rat liver ACC
  IC50: 14 nM
Recombinant human ACC2
  IC50: 9 nM

## Cc1nc2c(C)cc(C(=O)N3CCC4(CC3)CC(=O)c3nn(C(C)(C)C)cc3O4)cc2[nH]1 [3.003]
Rat liver ACC
  IC50: 10 nM
Recombinant human ACC2
  IC50: 4 nM

## COc1ccc2cc(C(=O)N3CCC4(CC3)CC(=O)c3nn(C(C)(C)C)cc3O4)ccc2c1 [6.004]
Rat liver ACC
  IC50: 77 nM
Recombinant human ACC2
  IC50: 38 nM

## CCOc1cc(C(=O)N2CCC3(CC2)CC(=O)c2nn(CC)c(C)c2O3)cc2c(CC)n[nH]c12 [1.119]
Rat liver ACC
  IC50: 13 nM
Recombinant human ACC2
  IC50: 18 nM

## CCn1cc2c(n1)C(=O)CC1(CCN(C(=O)c3cc(C)c4[nH]nc(C)c4c3)CC1)O2 [1.003]
[1]; dose 1 mg/kg
  Percent decrease in Muscle Malonyl-CoA (quadriceps): −3.72 (8.87) %
[1]; dose 3 mg/kg
  Percent decrease in Muscle Malonyl-CoA (quadriceps): 21.23 (8.81) %
[1]; dose 10 mg/kg
  Percent decrease in Muscle Malonyl-CoA (quadriceps): 33.30 (4.83) %
[1]; dose 30 mg/kg
  Percent decrease in Muscle Malonyl-CoA (quadriceps): 48.81 (3.51) %
[2]; dose 1 mg/kg
  Percent decrease in Liver Malonyl-CoA: 31.45 (4.12) %
[2]; dose 3 mg/kg
  Percent decrease in Liver Malonyl-CoA: 47.61 (4.70) %
[2]; dose 10 mg/kg
  Percent decrease in Liver Malonyl-CoA: 67.40 (5.67) %
[2]; dose 30 mg/kg
  Percent decrease in Liver Malonyl-CoA: 70.47 (2.48) %
Recombinant human ACC2
  IC50: 11 nM

## Cc1cc(C(=O)N2CCC3(CC2)CC(=O)c2nn(C(C)(C)C)cc2O3)cc2cn[nH]c12 [1.042]
[1]; dose 1 mg/kg
  Percent decrease in Muscle Malonyl-CoA (quadriceps): 29.90 (5.21) %
[1]; dose 3 mg/kg
  Percent decrease in Muscle Malonyl-CoA (quadriceps): 27.60 (5.87) %
[1]; dose 10 mg/kg
  Percent decrease in Muscle Malonyl-CoA (quadriceps): 61.60 (5.38) %
[1]; dose 30 mg/kg
  Percent decrease in Muscle Malonyl-CoA (quadriceps): 74.70 (1.37) %
[2]; dose 1 mg/kg
  Percent decrease in Liver Malonyl-CoA: 41.87 (2.70) %
[2]; dose 3 mg/kg
  Percent decrease in Liver Malonyl-CoA: 48.07 (8.08) %
[2]; dose 10 mg/kg
  Percent decrease in Liver Malonyl-CoA: 71.81 (2.36) %
[2]; dose 30 mg/kg
  Percent decrease in Liver Malonyl-CoA: 86.50 (0.72) %
Recombinant human ACC2
  IC50: 4 nM

## Cc1n[nH]c2c(C)cc(C(=O)N3CCC4(CC3)CC(=O)c3nn(C5CCCCC5)cc3O4)cc12 [1.008]
Recombinant human ACC2
  IC50: 21 nM

## CCn1cc2c(n1)C(=O)CC1(CCN(C(=O)c3ccc4[nH]nc(C)c4c3)CC1)O2 [1.083]
Recombinant human ACC2
  IC50: 43 nM
